Assays:
Type in all cases: in vivo
[1] = system: yellow nutsedge (Cyperus esculentus); test: Postemergence herbicidal activity, yellow nutsedge; conditions: for pest or weed control at 4483.4 g/ha: 4 lb/A
Method in brief: (§1)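 Compound in acetone/water sprayed on soil flats at 50 gal/acre carrier volume, at rates given in lb/A. Preemergence: applied right after planting; postemergence: applied two weeks after germination. Scored about two weeks later as average percent of plants killed.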

foxtail (Setaria spp.) [2] = test: Preemergence herbicidal activity, foxtail; conditions: Pre
Method in brief: as §1

[3] = system: tomato (Lycopersicon esculentum); test: Preemergence herbicidal activity, tomato; conditions: Pre
Method in brief: as §1

[4] = system: velvetleaf (Abutilon theophrasti); test: Preemergence herbicidal activity, velvetleaf; conditions: Pre
Method in brief: as §1

[5] = system: yellow nutsedge (Cyperus esculentus); test: Preemergence herbicidal activity, yellow nutsedge
Method in brief: as §1

[6] = system: cocklebur (Xanthium pensylvanicum); test: Preemergence herbicidal activity, cocklebur
Method in brief: as §1

[7] = system: downybrome (Bromus tectorum); test: Preemergence herbicidal activity, downybrome; conditions: Pre; for % control, Downybrome: 2 lb/A
Method in brief: as §1

[8] = system: cocklebur (Xanthium pensylvanicum); test: Postemergence herbicidal activity, cocklebur; conditions: for % control, Cocklebur: Post, 2 lb/A; for pest or weed control at 4483.4 g/ha: Xanthium strumarium, post-emergence, 336 h, 4 lb/A
Method in brief: as §1

[9] = system: tomato (Lycopersicon esculentum); test: Postemergence herbicidal activity, tomato; conditions: Post; for % control, Tomato: 2 lb/A; for pest or weed control at 4483.4 g/ha: Solanum lycopersicum, post-emergence, 336 h, 4 lb/A
Method in brief: as §1

wild oats (Avena fatua) [10] = test: Postemergence herbicidal activity, wild oats; conditions: Post; for % control, Wild oat: 2 lb/A; for pest or weed control at 4483.4 g/ha: Avena fatua, post-emergence, 336 h, 4 lb/A, read-out: % control, Wild oat
Method in brief: as §1

foxtail (Setaria spp.) [11] = test: Postemergence herbicidal activity, foxtail; conditions: Post; for pest or weed control at 4483.4 g/ha: 4 lb/A
Method in brief: as §1

[12] = system: downybrome (Bromus tectorum); test: Postemergence herbicidal activity, downybrome; conditions: Post; for % control, Downybrome: 2 lb/A; for pest or weed control at 4483.4 g/ha: Bromus tectorum, post-emergence, 336 h, 4 lb/A
Method in brief: as §1

[13] = system: morningglory (Ipomoca spp.); test: Postemergence herbicidal activity, morningglory; conditions: for % control, Morningglory: Post, 2 lb/A; for pest or weed control at 4483.4 g/ha: Ipomoea, post-emergence, 336 h, 4 lb/A
Method in brief: as §1

[14] = system: velvetleaf (Abutilon theophrasti); test: Postemergence herbicidal activity, velvetleaf; conditions: for % control, Velvetleaf: Post, 2 lb/A; for pest or weed control at 4483.4 g/ha: Abutilon theophrasti, post-emergence, 336 h, 4 lb/A
Method in brief: (§2)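 Control of the weed species is the read-out, following spray application at a given rate in lb/A. Flats of seeded soil received treatment either directly upon planting or, for postemergence, two weeks after seedlings emerged. Spray carrier was aqueous acetone at 50 gallons per acre equivalent.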

[15] = system: morningglory (Ipomoca spp.); test: Preemergence herbicidal activity, morningglory; conditions: for % control, Morningglory: Pre, 2 lb/A
Method in brief: as §1

[16] = system: barnyardgrass (Echinochloa crusgalli); test: Preemergence herbicidal activity, barnyardgrass; conditions: Pre
Method in brief: as §2

marigold (Tagetes spp.) [17] = test: Postemergence herbicidal activity, marigold; conditions: for % control, Marigold: Post, 2 lb/A; for pest or weed control at 4483.4 g/ha: post-emergence, 336 h, 4 lb/A
Method in brief: as §1

marigold (Tagetes spp.) [18] = test: Preemergence herbicidal activity, marigold
Method in brief: as §1

wild oats (Avena fatua) [19] = test: Preemergence herbicidal activity, wild oats; conditions: Pre; for % control, Wild oat: 2 lb/A
Method in brief: as §1

[20] = system: barnyardgrass (Echinochloa crusgalli); test: Postemergence herbicidal activity, barnyardgrass; conditions: Post; for pest or weed control at 4483.4 g/ha: 4 lb/A
Method in brief: as §2

[21] = Echinochloa crus-galli, post-emergence, 336 h

Row | SMILES | % control, Downybrome [7] [%] | % control, Cocklebur [8] [%] | % control, Tomato [9] [%] | % control, Wild oat (wild oats (Avena fatua) [10]) [%] | % control, Downybrome [12] [%] | % control, Morningglory [13] [%] | % control, Velvetleaf [14] [%] | % control, Morningglory [15] [%] | % control, Marigold (marigold (Tagetes spp.) [17]) [%] | % control, Wild oat (wild oats (Avena fatua) [19]) [%] | pest or weed control at 4483.4 g/ha ([1]; Cyperus, post-emergence, 336 h) [%] | pest or weed control at 4483.4 g/ha [8] [%] | pest or weed control at 4483.4 g/ha [9] [%] | pest or weed control at 4483.4 g/ha (wild oats (Avena fatua) [10]) [%] | pest or weed control at 4483.4 g/ha (foxtail (Setaria spp.) [11]; Setaria, post-emergence, 336 h) [%] | pest or weed control at 4483.4 g/ha [12] [%] | pest or weed control at 4483.4 g/ha [13] [%] | pest or weed control at 4483.4 g/ha [14] [%] | pest or weed control at 4483.4 g/ha (marigold (Tagetes spp.) [17]) [%] | pest or weed control at 4483.4 g/ha [20, 21] [%] | other results
1 | CC(Oc1ccc(Oc2ccc(C(F)(F)F)cc2Cl)cc1)C(=O)O (centres unmarked) [Example 17] | 30 | 0 | 0 | 80 | 0 | 0 | 0 | 0 | 0 | 95 | – | – | – | – | – | – | – | – | – | – | % control, Nutsedge ([1]; Post, 2 lb/A): 0%; % control, Foxtail (foxtail (Setaria spp.) [2]; 2 lb/A): 100%; % control, Tomato ([3]; 2 lb/A): 0%; % control, Velvetleaf ([4]; 2 lb/A): 0%; % control, Nutsedge ([5]; Pre, 2 lb/A): 0%; % control, Cocklebur ([6]; Pre, 2 lb/A): 0%; % control, Foxtail (foxtail (Setaria spp.) [11]; 2 lb/A): 90%; % control, Barnyardgrass ([16]; 2 lb/A): 100%; % control, Marigold (marigold (Tagetes spp.) [18]; Pre, 2 lb/A): 0%; % control, Barnyardgrass ([20]; 2 lb/A): 99%
2 | CCOC(=O)C(C)Oc1ccc([S+]([O-])c2ccc(C(F)(F)F)cc2Cl)cc1 (centres unmarked) [Example 42] | – | – | – | – | – | – | – | – | – | – | 0 | 0 | 0 | 0 | 0 | 0 | 0 | 0 | 0 | 0 | pest or weed control at 4483.4 g/ha (foxtail (Setaria spp.) [2]; Setaria, pre-emergence, 336 h, 4 lb/A): 99%; pest or weed control at 4483.4 g/ha ([3]; Solanum lycopersicum, pre-emergence, 336 h, 4 lb/A): 0%; pest or weed control at 4483.4 g/ha ([4]; Abutilon theophrasti, pre-emergence, 336 h, 4 lb/A): 40%; pest or weed control at 4483.4 g/ha ([5]; Cyperus, pre-emergence, 336 h, 4 lb/A): 0%; pest or weed control at 4483.4 g/ha ([6]; Xanthium strumarium, pre-emergence, 336 h, 4 lb/A): 0%; pest or weed control at 4483.4 g/ha ([7]; Bromus tectorum, pre-emergence, 336 h, 4 lb/A): 40%; pest or weed control at 4483.4 g/ha ([15]; Ipomoea, pre-emergence, 336 h, 4 lb/A): 0%; pest or weed control at 4483.4 g/ha ([16]; Echinochloa crus-galli, pre-emergence, 336 h, 4 lb/A): 95%; pest or weed control at 4483.4 g/ha (marigold (Tagetes spp.) [18]; pre-emergence, 336 h, 4 lb/A): 0%; pest or weed control at 4483.4 g/ha (wild oats (Avena fatua) [19]; Avena fatua, pre-emergence, 336 h, 4 lb/A, read-out: % control, Wild oat): 20%
3 | CCOC(=O)C(C)Oc1ccc(Sc2ccc(C(F)(F)F)cc2)cc1 (centres unmarked) [Example 46] | – | – | – | – | – | – | – | – | – | – | 0 | 0 | 80 | 20 | 30 | 30 | 0 | 0 | 0 | 50 | pest or weed control at 8966.8 g/ha (foxtail (Setaria spp.) [2]; Setaria, pre-emergence, 336 h, 8 lb/A): 70%; pest or weed control at 8966.8 g/ha ([3]; Solanum lycopersicum, pre-emergence, 336 h, 8 lb/A): 0%; pest or weed control at 8966.8 g/ha ([4]; Abutilon theophrasti, pre-emergence, 336 h, 8 lb/A): 0%; pest or weed control at 8966.8 g/ha ([5]; Cyperus, pre-emergence, 336 h, 8 lb/A): 0%; pest or weed control at 8966.8 g/ha ([6]; Xanthium strumarium, pre-emergence, 336 h, 8 lb/A): 0%; pest or weed control at 8966.8 g/ha ([7]; Bromus tectorum, pre-emergence, 336 h, 8 lb/A): 50%; pest or weed control at 8966.8 g/ha ([15]; Ipomoea, pre-emergence, 336 h, 8 lb/A): 0%; pest or weed control at 8966.8 g/ha ([16]; Echinochloa crus-galli, pre-emergence, 336 h, 8 lb/A): 70%; pest or weed control at 8966.8 g/ha (marigold (Tagetes spp.) [18]; pre-emergence, 336 h, 8 lb/A): 0%; pest or weed control at 8966.8 g/ha (wild oats (Avena fatua) [19]; Avena fatua, pre-emergence, 336 h, 8 lb/A, read-out: % control, Wild oat): 0%
4 | CC(Oc1ccc(Oc2ccc(C(F)(F)F)cc2Cl)cc1)C(=O)O (centres unmarked) [Example 6, 2-[4-(2-Chloro-4-trifluoromethylphenoxy)phenoxy] propionic acid] | 40 | 50 | 80 | 95 | 30 | 40 | 20 | 0 | 20 | 20 | – | – | – | – | – | – | – | – | – | – | pest or weed control at 2241.7 g/ha ([1]; Cyperus, post-emergence, 336 h, 2 lb/A): 0%; pest or weed control at 2241.7 g/ha (foxtail (Setaria spp.) [2]; Setaria, pre-emergence, 336 h, 2 lb/A): 100%; pest or weed control at 2241.7 g/ha ([3]; Solanum lycopersicum, pre-emergence, 336 h, 2 lb/A): 0%; pest or weed control at 2241.7 g/ha ([4]; Abutilon theophrasti, pre-emergence, 336 h, 2 lb/A): 0%; pest or weed control at 2241.7 g/ha ([5]; Cyperus, pre-emergence, 336 h, 2 lb/A): 0%; pest or weed control at 2241.7 g/ha ([6]; Xanthium strumarium, pre-emergence, 336 h, 2 lb/A): 0%; pest or weed control at 2241.7 g/ha (foxtail (Setaria spp.) [11]; Setaria, post-emergence, 336 h, 2 lb/A): 95%; pest or weed control at 2241.7 g/ha ([16]; Echinochloa crus-galli, pre-emergence, 336 h, 2 lb/A): 100%; pest or weed control at 2241.7 g/ha (marigold (Tagetes spp.) [18]; pre-emergence, 336 h, 2 lb/A): 0%; pest or weed control at 2241.7 g/ha ([20]; Echinochloa crus-galli, post-emergence, 336 h, 2 lb/A): 100%
